Reference: patent publication US20120264735A1 (priority 2009, published 2012)

Target: T1, c-Met kinase (recombinant c-Met) (Homo sapiens, UniProt P08581)
T1 construct: 0.27 nM recombinant c-Met
Assay: In vitro kinase assay I (homogeneous time-resolved fluorescence tyrosine kinase assay)
Assay type: biochemical
Procedure, shortened: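 Biotinylated peptide (0.5 μM) phosphorylated by 0.2 nM recombinant c-Met with 50 μM MgATP, 60 min at room temperature, pH 7.4, 5% DMSO. EDTA stop; HTRF read with Eu-anti-phosphotyrosine antibody and streptavidin-APC. IC50 from 4-parameter logistic fit.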

T1 sequence (P08581 25-1390): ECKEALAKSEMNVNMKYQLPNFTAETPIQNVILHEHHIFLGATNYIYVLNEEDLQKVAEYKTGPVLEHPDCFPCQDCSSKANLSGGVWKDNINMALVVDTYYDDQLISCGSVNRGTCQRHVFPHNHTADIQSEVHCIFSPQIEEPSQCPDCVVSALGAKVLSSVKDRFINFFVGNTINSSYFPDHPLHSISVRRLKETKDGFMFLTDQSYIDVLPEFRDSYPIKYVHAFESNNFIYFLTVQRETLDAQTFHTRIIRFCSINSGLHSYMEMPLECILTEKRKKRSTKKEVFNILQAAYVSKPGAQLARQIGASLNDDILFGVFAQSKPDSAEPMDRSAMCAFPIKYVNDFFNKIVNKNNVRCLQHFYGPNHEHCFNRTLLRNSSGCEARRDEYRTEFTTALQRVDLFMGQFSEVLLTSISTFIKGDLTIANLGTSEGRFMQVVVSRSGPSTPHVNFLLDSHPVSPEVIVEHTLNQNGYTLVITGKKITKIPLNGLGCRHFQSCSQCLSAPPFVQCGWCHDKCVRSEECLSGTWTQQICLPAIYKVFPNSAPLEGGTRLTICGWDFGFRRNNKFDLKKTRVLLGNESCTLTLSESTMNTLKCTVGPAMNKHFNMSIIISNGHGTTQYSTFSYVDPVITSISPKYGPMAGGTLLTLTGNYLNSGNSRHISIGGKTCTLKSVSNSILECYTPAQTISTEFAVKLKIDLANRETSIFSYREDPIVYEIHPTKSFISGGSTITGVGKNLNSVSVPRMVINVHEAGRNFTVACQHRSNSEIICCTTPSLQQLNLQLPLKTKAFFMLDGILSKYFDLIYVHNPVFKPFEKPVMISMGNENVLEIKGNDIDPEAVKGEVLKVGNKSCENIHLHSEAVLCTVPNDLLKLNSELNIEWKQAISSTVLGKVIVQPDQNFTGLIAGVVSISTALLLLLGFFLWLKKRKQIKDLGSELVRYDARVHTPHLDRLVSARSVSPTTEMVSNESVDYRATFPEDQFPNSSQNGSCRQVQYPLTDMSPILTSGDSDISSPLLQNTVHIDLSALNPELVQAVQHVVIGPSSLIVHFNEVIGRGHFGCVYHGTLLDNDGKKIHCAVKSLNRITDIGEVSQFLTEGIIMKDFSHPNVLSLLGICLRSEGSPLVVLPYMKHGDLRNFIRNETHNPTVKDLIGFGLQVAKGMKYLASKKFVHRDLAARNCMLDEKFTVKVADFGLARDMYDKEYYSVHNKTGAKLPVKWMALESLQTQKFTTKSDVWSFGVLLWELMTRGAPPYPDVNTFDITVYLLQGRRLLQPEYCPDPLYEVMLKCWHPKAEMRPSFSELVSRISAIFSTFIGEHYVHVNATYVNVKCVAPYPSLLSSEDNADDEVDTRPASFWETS

Compound	IC50
CCn1cc(-n2ccc(=O)c(C(C)c3cccc(-c4ncc(OCc5cc(C)no5)cn4)c3)n2)cn1 (single isomer, unassigned) [Example 301, 1-(1-ethyl-1H-pyrazol-4-yl)-3-[(1R or S)-1-(3-{5-[(3-methylisoxazol-5-yl)methoxy]pyrimidin-2-yl}phenyl)ethyl]pyridazin-4(1H)-one]	< 100 nM
CCn1cc(-n2ccc(=O)c(C(C)c3cccc(-c4ncc(OCc5noc(C)n5)cn4)c3)n2)cn1 (single isomer, unassigned) [Example 302, 1-(1-ethyl-1H-pyrazol-4-yl)-3-[(1R or S)-1-(3-{5-[(5-methyl-1,2,4-oxadiazol-3-yl)methoxy]pyrimidin-2-yl}phenyl)ethyl]pyridazin-4(1H)-one]	< 100 nM
CCn1cc(-n2ccc(=O)c(C(C)c3cccc(-c4ncc(OCCn5cccn5)cn4)c3)n2)cn1 (single isomer, unassigned) [Example 303, 1-(1-ethyl-1H-pyrazol-4-yl)-3-[(1R or S)-1-(3-{5-[2-(1H-pyrazol-1-yl)ethoxy]pyrimidin-2-yl}phenyl)ethyl]pyridazin-4(1H)-one]	< 100 nM
CCn1cc(-n2ccc(=O)c(C(C)c3cccc(-c4ncc(OCC5(C)COC5)cn4)c3)n2)cn1 (single isomer, unassigned) [Example 304, 1-(1-ethyl-1H-pyrazol-4-yl)-3-[(1R or S)-1-(3-{5-[(3-methyloxetan-3-yl)methoxy]pyrimidin-2-yl}phenyl)ethyl]pyridazin-4(1H)-one]	< 100 nM
CCn1cc(-n2ccc(=O)c(C(C)c3cccc(-c4ncc(OC)cn4)c3)n2)cn1 (single isomer, unassigned) [Example 332, 1-(1-ethyl-1H-pyrazol-4-yl)-3-{(1S or R)-1-[3-(5-methoxypyrimidin-2-yl)phenyl]ethyl}pyridazin-4(1H)-one]	100 to 1000 nM
CCn1cc(-n2ccc(=O)c(C(C)c3cccc(-c4ncc(OC)cn4)c3)n2)cn1 (single isomer, unassigned) [Example 333, 1-(1-ethyl-1H-pyrazol-4-yl)-3-{(1R or S)-1-[3-(5-methoxypyrimidin-2-yl)phenyl]ethyl}pyridazin-4(1H)-one]	< 100 nM
CCn1cc(-n2ccc(=O)c(C(C)c3cccc(-c4ncc(OCC5(F)CCNCC5)cn4)c3)n2)cn1 (single isomer, unassigned) [Example 338, 1-(1-ethyl-1H-pyrazol-4-yl)-3-[(1R or S)-1-(3-{5-[(4-fluoropiperidin-4-yl)methoxy]pyrimidin-2-yl}phenyl)ethyl]pyridazin-4(1H)-one]	< 100 nM
CCn1cc(-n2ccc(=O)c(C(C)c3cccc(-c4ncc(OCC5CCNCC5)cn4)c3)n2)cn1 (single isomer, unassigned) [Example 339, 1-(1-ethyl-1H-pyrazol-4-yl)-3-((1R or S)-1-{3-[5-(piperidin-4-ylmethoxy)pyrimidin-2-yl]phenyl}ethyl)pyridazin-4(1H)-one]	< 100 nM
CCn1cc(-n2ccc(=O)c(C(C)c3cccc(-c4ncc(OC5CNC5)cn4)c3)n2)cn1 (single isomer, unassigned) [Example 340, 3-((1R or S)-1-{3-[5-(azetidin-3-yloxy)pyrimidin-2-yl]phenyl}ethyl)-1-(1-ethyl-1H-pyrazol-4-yl)pyridazin-4(1H)-one]	< 100 nM
CC(c1cccc(-c2ncc(O[C@@H]3CCNC[C@H]3F)cn2)c1)c1nn(-c2cnn(C)c2)ccc1=O (single isomer, unassigned) [Example 341, 3-{(1R or S)-1-[3-(5-{[(3R or S,4R or S)-3-Fluoropiperidin-4-yl]oxy}pyrimidin-2-yl)phenyl]ethyl}-1-(1-methyl-1H-pyrazol-4-yl)pyridazin-4(1H)-one]	< 100 nM
CC(c1cccc(-c2ncc(O[C@@H]3CCNC[C@H]3F)cn2)c1)c1nn(-c2cnn(C)c2)ccc1=O (single isomer, unassigned) [Example 342, 3-{(1R or S)-1-[3-(5-{[(3R or S, 4R or S)-3-fluoropiperidin-4-yl]oxy}pyrimidin-2-yl)phenyl]ethyl}-1-(1-methyl-1H-pyrazol-4-yl)pyridazin-4(1H)-one]	< 100 nM
CC(c1cccc(-c2ncc(O[C@@H]3CCNC[C@H]3F)cn2)c1)c1nn(-c2cnn(C)c2)ccc1=O (single isomer, unassigned) [Example 343, 3-{(1R or S)-1-[3-(5-{[(3R or S, 4R or S)-3-fluoropiperidin-4-yl]oxy}pyrimidin-2-yl)phenyl]ethyl}-1-(1-methyl-1H-pyrazol-4-yl)pyridazin-4(1H)-one]	100 to 1000 nM
O=c1ccn(-c2ccc(F)c(F)c2)nc1Cc1cccc(-c2ncc(OCC3COCCO3)cn2)c1 (single isomer, unassigned) [Example 345, 1-(3,4-difluorophenyl)-3-(3-{5-[(2R or S)-1,4-dioxan-2-ylmethoxy]pyrimidin-2-yl}benzyl)pyridazin-4(1H)-one]	< 100 nM
O=c1ccn(-c2ccc(F)c(F)c2)nc1Cc1cccc(-c2ncc(OCC3COCCO3)cn2)c1 (single isomer, unassigned) [Example 346, 1-(3,4-difluorophenyl)-3-(3-{5-[(2S or R-1,4-dioxan-2-ylmethoxy]pyrimidin-2-yl}benzyl)pyridazin-4(1H)-one]	< 100 nM
Cn1cc(-n2ccc(=O)c(Cc3cccc(-c4ncc(OCC5COCCO5)cn4)c3)n2)cn1 (single isomer, unassigned) [Example 347, 3-(3-{5-[(2R or-S)-1,4-dioxan-2-ylmethoxy]pyrimidin-2-yl}benzyl)-1-(1-methyl-1H-pyrazol-4-yl)pyridazin-4(1H)-one]	< 100 nM
Cn1cc(-n2ccc(=O)c(Cc3cccc(-c4ncc(OCC5COCCO5)cn4)c3)n2)cn1 (single isomer, unassigned) [Example 348, 3-(3-{5-[(2S or R)-1,4-dioxan-2-ylmethoxy]pyrimidin-2-yl}benzyl)-1-(1-methyl-1H-pyrazol-4-yl)pyridazin-4(1H)-one]	< 100 nM
O=c1ccn(-c2ccc(F)c(F)c2)nc1Cc1cccc(-c2ncc(OC3CCOC3)cn2)c1 (single isomer, unassigned) [Example 349, 1-(3,4-difluorophenyl)-3-(3-{5-[(3R or S)-tetrahydrofuran-3-yloxy]pyrimidin-2-yl}benzyl)pyridazin-4(1H)-one]	< 100 nM
O=c1ccn(-c2ccc(F)c(F)c2)nc1Cc1cccc(-c2ncc(OC3CCOC3)cn2)c1 (single isomer, unassigned) [Example 350, 1-(3,4-difluorophenyl)-3-(3-{5-[(3S or R)-tetrahydrofuran-3-yloxy]pyrimidin-2-yl}benzyl)pyridazin-4(1H)-one]	< 100 nM
O=c1ccn(-c2ccc(F)c(F)c2)nc1Cc1cccc(-c2ncc(OCC3CCOC3)cn2)c1 (single isomer, unassigned) [Example 351, 1-(3,4-difluorophenyl)-3-(3-{5-[(3R or S)-tetrahydrofuran-3-ylmethoxy]pyrimidin-2-yl}benzyl)pyridazin-4(1H)-one]	< 100 nM
O=c1ccn(-c2ccc(F)c(F)c2)nc1Cc1cccc(-c2ncc(OCC3CCOC3)cn2)c1 (single isomer, unassigned) [Example 352, 1-(3,4-difluorophenyl)-3-(3-{5-[(3S or R)-tetrahydrofuran-3-ylmethoxy]pyrimidin-2-yl}benzyl)pyridazin-4(1H)-one]	< 100 nM
C[C@@H](O)[C@@H](C)Oc1cnc(-c2cccc(Cc3nn(-c4cnn(C)c4)ccc3=O)c2)nc1 (single isomer, unassigned) [Example 374]	< 100 nM
C[C@H](O)[C@H](C)Oc1cnc(-c2cccc(Cc3nn(-c4cnn(C)c4)ccc3=O)c2)nc1 (single isomer, unassigned) [Example 375]	< 100 nM
C[C@H](O)[C@@H](C)Oc1cnc(-c2cccc(Cc3nn(-c4cnn(C)c4)ccc3=O)c2)nc1 (single isomer, unassigned) [Example 376]	< 100 nM
C[C@H](Oc1cnc(-c2cccc(Cc3nn(-c4cnn(C)c4)ccc3=O)c2)nc1)[C@@H](C)O (single isomer, unassigned) [Example 377]	< 100 nM
Cn1cc(-n2ccc(=O)c(Cc3cccc(-c4ncc(O[C@@H]5CCC[C@H]5O)cn4)c3)n2)cn1 (single isomer, unassigned) [Example 378]	< 100 nM
Cn1cc(-n2ccc(=O)c(Cc3cccc(-c4ncc(O[C@H]5CCC[C@@H]5O)cn4)c3)n2)cn1 (single isomer, unassigned) [Example 379]	< 100 nM
CC(c1cccc(-c2ncc(OCC(C)(C)O)cn2)c1)c1nn(-c2cnn(C)c2)ccc1=O (single isomer, unassigned) [Example 380, 3-((1S or R)-1-{3-[5-(2-hydroxy-2-methylpropoxy)pyrimidin-2-yl]phenyl}ethyl)-1-(1-methyl-1H-pyrazol-4-yl)pyridazin-4(1H)-one]	< 100 nM
CC(c1cccc(-c2ncc(OCC(C)(C)O)cn2)c1)c1nn(-c2cnn(C)c2)ccc1=O (single isomer, unassigned) [Example 381, 3-((1R or S)-1-{3-[5-(2-hydroxy-2-methylpropoxy)pyrimidin-2-yl]phenyl}ethyl)-1-(1-methyl-1H-pyrazol-4-yl)pyridazin-4(1H)-one]	< 100 nM
CC(c1cccc(-c2ncc(OC(C)C(C)(C)O)cn2)c1)c1nn(-c2cnn(C)c2)ccc1=O (single isomer, unassigned) [Example 382, 3-{(1R or S)-1-[3-(5-{[(1R or S)-2-hydroxy-1,2-dimethylpropyl]oxy}pyrimidin-2-yl)phenyl]ethyl}-1-(1-methyl-1H-pyrazol-4-yl)pyridazin-4(1H)-one]	< 100 nM
CC(c1cccc(-c2ncc(OC(C)C(C)(C)O)cn2)c1)c1nn(-c2cnn(C)c2)ccc1=O (single isomer, unassigned) [Example 383, 3-{(1R or S)-1-[3-(5-{[(1R or S)-2-hydroxy-1,2-dimethylpropyl]oxy}pyrimidin-2-yl)phenyl]ethyl}-1-(1-methyl-1H-pyrazol-4-yl)pyridazin-4(1H)-one]	< 100 nM
